Assay results published in US20240124454A1, “TRICYCLIC COMPOUND AND USE THEREOF” (NANJING ZAIMING PHARMACEUTICAL CO., LTD., priority 2020, published 2024).
Where two headings read alike, the source gives them in different places.

Key:
MAT2A = MAT2A (Homo sapiens (Human), UniProt P31153); test: MAT2A biochemical test (inorganic phosphate colorimetric, PiColorLock); conditions: read-out: MAT2A inhibitory Activity IC50
How it was run: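 Compounds tested from 10 μM top concentration in 3-fold dilutions, preincubated 120 min at room temperature with MAT2A ([…] final) in Tris/KCl/MgCl2/EDTA/BSA buffer. Reaction started with […] L-methionine and 400 μM ATP, run 90 min at room temperature; phosphate read by PiColorLock after 30 min. IC50 fitted from % inhibition versus no-enzyme and DMSO controls.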

[1] = Metabolic stability in mouse liver microsomes; type: in vitro ADME; conditions: 1 μM compound, 0.5 mg/mL microsome, NADPH; for half-life at 1 μM: CD-1, mouse, liver microsomes, pH 7.4, read-out: Mouse liver microsome stability t1/2
Procedure: Test Example 4. Determination of Metabolic Stability of Compound of the Present Application in Liver Microsomes
The metabolic stability of the compound of the present application in liver microsomes was determined using the following method.
I. Experimental materials and instruments • 1. Human liver microsome (Corning 452117), beagle dog liver microsome (XENOTECH D1000), SD rat liver microsome (XENOTECH R1000), and CD-i mouse liver microsome (XENOTECH M1000) • 2. Na2HPO4 (Tianjin Guangfu Fine Chemical Research Institute 20180130) • 3. KH2PO4 (Tianjin Guangfu Fine Chemical Research Institute 20180920) • 4. MgCl2 (Tianjin Guangfu Fine Chemical Research Institute 20191216) • 5. NADPH (Solarbio 1216C022) • 6. Positive control compound verapamil (Sigma MKBV4993V) • 7. AB Sciex API4000 liquid chromatography-mass spectrometry system
1. Preparation of 100 mMV phosphate-buffered saline (PBS): 7.098 g Na2HPO4 was weighed. 500 mL pure water was added. The mixture was dissolved by sonication to give solution A. 3.400 g KH2PO4 was weighed. 250 mL pure water was added. The mixture was dissolved by sonication to give solution B. The solution A was placed in a stirrer, and the solution B was slowly added until the pH reached 7.4, so that the 100 mM PBS buffer was prepared.
2. Preparation of reaction system
The reaction system was prepared as follows:
3. The reaction system was pre-incubated in a 37° C. water bath for 10 min. 40 μL of 10 mM NADPH solution (NADPH was dissolved by 100 mM phosphate-buffered saline) was added to the reaction system with a final concentration of NADPH being 1 mM. A negative control was made by replacing the NADPH solution with 40 μL phosphate-buffered saline. The negative control was used to exclude the effect of chemical stability of the compound itself.
4. The reaction was initiated by adding 4 μL of 100 μM of the compound of the present application and verapamil, the positive control compound, to the reaction system with a final concentration of the compound being 1 μM.
5. After being uniformly mixed in a vortex oscillator, 50 μL incubation sample was respectively taken out at 0.5, 15, 30, 45, and 60 min, and the reaction was stopped by 200 μL glacial acetonitrile containing an internal standard. The sample was centrifuged at 3220 g for 45 min. 90 μL of the supernatant was transferred to a feeding plate after the centrifugation was completed, and 90 μL ultrapure water was added. The mixture was well mixed for LC-MS/MS analysis.
All data were calculated by Microsoft Excel software. The peak area was detected through an extracted ion chromatogram. The in vitro half-life (t1/2) of the compound was determined by linear fitting of the natural logarithm of compound elimination percentage over time.
In vitro half-life (t1/2) was calculated by the slope: […]
The in vitro intrinsic clearance (in μL/min/mg protein) was calculated using the following formula:
in vitro CLint=k×volume of incubation (μL)/amount of proteins (mg)
CLint was intrinsic clearance; k was an elimination rate constant; volume of incubation was the incubation volume (μL); amount of proteins was the amount of protein (mg)

MAT2A, sequence (P31153 whole entry): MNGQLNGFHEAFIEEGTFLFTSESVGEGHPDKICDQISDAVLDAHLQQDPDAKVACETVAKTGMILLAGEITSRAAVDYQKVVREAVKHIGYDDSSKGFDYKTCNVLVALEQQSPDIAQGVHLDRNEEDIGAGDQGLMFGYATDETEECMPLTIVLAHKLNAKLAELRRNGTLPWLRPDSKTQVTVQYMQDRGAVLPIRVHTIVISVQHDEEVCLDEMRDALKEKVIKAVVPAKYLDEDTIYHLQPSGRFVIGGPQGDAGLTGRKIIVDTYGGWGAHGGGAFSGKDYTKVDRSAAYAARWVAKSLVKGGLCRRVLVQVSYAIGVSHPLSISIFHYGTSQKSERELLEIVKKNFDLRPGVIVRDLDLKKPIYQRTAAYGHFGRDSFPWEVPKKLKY

IC50 (MAT2A; class symbols) [nM] | IC50 (MAT2A; numeric values) [nM] | half-life at 1 μM [1] [h] | SMILES | Mouse liver microsome stability t1/2 [1] [h]
< 100 | 20.3 | 1.86 | Cn1cnc2c(=O)n(-c3cccnc3C3CC3)c3nc(C(F)(F)F)ccc3c21 (single isomer, unassigned) [Compound 42-P2, 5-(2-cyclopropylpyridin-3-yl)-1-methyl-7-(trifluoromethyl)-1,5-dihydro-4H-imidazo[4,5-c][1,8]naphthyridin-4-one] | 
< 100 | 21.4 | > 5 | Cn1cnc2c(=O)n(-c3cccnc3C3CC3)c3cc(C(F)(F)F)ccc3c21 (single isomer, unassigned) [Compound 48-P2, 5-(2-cyclopropylpyridin-3-yl)-1-methyl-7-(trifluoromethyl)-1,5-dihydro-4H-imidazo[4,5-c]quinolin-4-one] | 
< 100 | 36.2 |  | O=c1c2ncoc2c2ccc(C(F)(F)F)nc2n1-c1cccnc1C1CC1 (single isomer, unassigned) [Compound 81-P2, 5-(2-cyclopropylpyridin-3-yl)-7-(trifluoromethyl)oxazolo[4,5-c][1,8]naphthyridin-4(5H)-one] | 
< 100 | 47 | > 5 | Cc1ncccc1-n1c(=O)c2ncn(C)c2c2ccc(C(F)(F)F)cc21 [Compound 45, 1-methyl-5-(2-methylpyridin-3-yl)-7-(trifluoromethyl)-1,5-dihydro-4H-imidazo[4,5-c]quinolin-4-one] | 

Further lines, the molecule ahead of its results:

SMILES | IC50 (MAT2A; class symbols) [nM] | IC50 (MAT2A; numeric values) [nM] | half-life at 1 μM [1] [h] | Mouse liver microsome stability t1/2 [1] [h]
Cc1ncccc1-n1c(=O)c2ncn(C)c2c2ccc(C(F)(F)F)nc21 (atropisomer, axis not shown) [Compound 20, 1-methyl-5-(2-methylpyridin-3-yl)-7-(trifluoromethyl)-1,5-dihydro-4H-imidazo[4,5-c][1,8]naphthyridin-4-one] | < 100 | 54.9 | > 5 | 
Cn1cnc2c(=O)n(-c3cccc(F)c3Cl)c3nc(C(F)(F)F)ccc3c21 (atropisomer, axis not shown) [Compound 25, 5-(2-chloro-3-fluorophenyl)-1-methyl-7-(trifluoromethyl)-1,5-dihydro-4H-imidazo[4,5-c][1,8]naphthyridin-4-one] | < 100 | 48 | 4.78 | 
Cn1cnc2c(=O)n(-c3cccc(F)c3Cl)c3nc(C(F)(F)F)ccc3c21 (single isomer, unassigned) [Compound 25-P2, 5-(2-chloro-3-fluorophenyl)-1-methyl-7-(trifluoromethyl)-1,5-dihydro-4H-imidazo[4,5-c][1,8]naphthyridin-4-one] | < 100 | 20.6 | > 5 | 
Cn1cnc2c(=O)n(-c3cccnc3C(F)(F)F)c3nc(C(F)(F)F)ccc3c21 (single isomer, unassigned) [Compound 41-P2, 1-methyl-7-(trifluoromethyl)-5-(2-(trifluoromethyl)pyridin-3-yl)-1,5-dihydro-4H-imidazo[4,5-c][1,8]naphthyridin-4-one] | < 100 | 22.3 | > 5 | 
Cn1cnc2c(=O)n(-c3cccnc3C3CC3)c3cc(Cl)ccc3c21 (single isomer, unassigned) [Compound 49-P2, 7-chloro-5-(2-cyclopropylpyridin-3-yl)-1-methyl-1,5-dihydro-4H-imidazo[4,5-c]quinolin-4-one] | < 100 | 18.7 | > 5 | 
Cn1cnc2c(=O)n(-c3cccc(F)c3Cl)c3cc(Cl)ccc3c21 [Compound 39, 7-chloro-5-(2-chloro-3-fluorophenyl)-1-methyl-1,5-dihydro-4H-imidazo[4,5-c]quinolin-4-one] | < 100 | 60.4 |  | >5
Cc1ncccc1-n1c(=O)c2ncoc2c2ccc(C(F)(F)F)nc21 [Compound 40, 5-(2-methylpyridin-3-yl)-7-(trifluoromethyl)oxazolo[4,5-c][1,8]naphthyridin-4(5H)-one] | < 100 | 43 | > 5 | 
